Measurements from patent US20040163143A1, “Method for efficiently producing transgenic plant using auxin precursor” (NIPPON PAPER INDUSTRIES CO., LTD., priority 2002, published 2004).

Tests used:
[1] = system: E. globulus hypocotyl sections; assay: E. globulus gene introduction test, vector pIAH6 (ipt + iaaH + GUS), adventitious bud redifferentiation and GUS staining; type: cell-based, Eucalyptus globulus; conditions: for B/A Redifferentiation ratio / C/A Gene introduction ratio / C/B Selection efficiency: section basis
Description: Using a plasmid pIAH6 as a vector having a GUS gene as a model of a desired gene and an ipt gene and an iaaH gene as selectable marker genes, a transformant was produced by carrying out gene introduction into Eucalyptus globulus (hereinafter referred to as “E. globulus”) by the method of the present invention. Seeds of E. globulus from Chile were sterilized by soaking in 70% ethanol for about 1 minute and then soaking with stirring in a 2% aqueous sodium hypochlorite solution for about 4 hours, washed thoroughly with sterile water, inoculated on an MS agar medium to which 0.5 mg/l zeatin had been added and stored in a refrigerator at 4° C. for 2 days to accelerate germination, and then the germination was carried out by culturing at 25° C. under light conditions of about 10 μmol/m^2/s in light intensity. One to two weeks after the inoculation of the seeds onto the germination medium, hypocotyls were collected by cutting out apical buds, cotyledons and roots of the germinated seedlings, and the hypocotyls were cut into sections of about 5 mm to be used as samples for gene introduction and subjected to the following test. A. tumefaciens EHA105 introduced with the plasmid pIAH6 in the above item I was cultured overnight in the YEB liquid medium and then diluted to OD630 =0.5 with EG basal medium, and the sections of hypocotyl prepared in the above were soaked in the cell suspension. Next, each of the sections after removing excess cell suspension was co-cultured with Agrobacterium on an agar medium (agar 8.5 g/l) prepared by adding 1.0 mg/l zeatin, 0.05 mg/l NAA and 40 mg/l acetosyringone to the EG basal medium, at 25° C. for 3 days in the dark to thereby infect each section with the pIAH6-introduced Agrobacterium. In this case, a modified MS medium having an ammonia nitrogen/nitrate nitrogen concentration ratio of 1:3 (5 mM NH4, 15 mM NO3) was supplemented with 20 g/l sucrose and used as the EG basal medium. The sections after infection culturing were put on an EG basal agar medium (agar 8.5 g/l) supplemented with 500 mg/l ticarcillin and 1 μM or 10 μM of an auxin precursor analogue NAM, and the culturing was continued at 25° C. under light conditions of 30 to 40 μmol/m^2/s in light intensity while sub-culturing at an interval of 2 weeks using the same medium. Among these sections, the quicker ones redifferentiated adventitious buds after about 2 months of the Agrobacterium infection. Three months after the Agrobacterium infection, in order to examine expression of the GUS gene used as a model of the desired gene, the redifferentiated adventitious buds were subjected to a GUS staining test in accordance with the method of Jefferson et al. (Plant Mol. Biol. Rep., 5: 387-405 (1987)), and the degree of formation of desired gene-introduced adventitious buds was judged by examining the number of stained adventitious buds (the number of adventitious buds expressing the desired gene). An E. globulus gene introduction test was carried out in the same manner as in Example 1, except that the hypocotyl sections after the Agrobacterium infection were cultured using the EG basal agar medium (agar 8.5 g/l) supplemented with 500 mg/l ticarcillin and 0 μM, 1 μM or 10 μM NAA as auxin.

[2] = system: E. globulus hypocotyl sections; assay: E. globulus gene introduction test, vector pIPT10 (ipt only + GUS), adventitious bud redifferentiation and GUS staining; type: cell-based, Eucalyptus globulus; conditions: for B/A Redifferentiation ratio / C/A Gene introduction ratio / C/B Selection efficiency: section basis
Description: Seeds of E. globulus from Chile were sterilized by soaking in 70% ethanol for about 1 minute and then soaking with stirring in a 2% aqueous sodium hypochlorite solution for about 4 hours, washed thoroughly with sterile water, inoculated on an MS agar medium to which 0.5 mg/l zeatin had been added and stored in a refrigerator at 4° C. for 2 days to accelerate germination, and then the germination was carried out by culturing at 25° C. under light conditions of about 10 μmol/m^2/s in light intensity. One to two weeks after the inoculation of the seeds onto the germination medium, hypocotyls were collected by cutting out apical buds, cotyledons and roots of the germinated seedlings, and the hypocotyls were cut into sections of about 5 mm to be used as samples for gene introduction and subjected to the following test. A. tumefaciens EHA105 introduced with the plasmid pIAH6 in the above item I was cultured overnight in the YEB liquid medium and then diluted to OD630 =0.5 with EG basal medium, and the sections of hypocotyl prepared in the above were soaked in the cell suspension. Next, each of the sections after removing excess cell suspension was co-cultured with Agrobacterium on an agar medium (agar 8.5 g/l) prepared by adding 1.0 mg/l zeatin, 0.05 mg/l NAA and 40 mg/l acetosyringone to the EG basal medium, at 25° C. for 3 days in the dark to thereby infect each section with the pIAH6-introduced Agrobacterium. In this case, a modified MS medium having an ammonia nitrogen/nitrate nitrogen concentration ratio of 1:3 (5 mM NH4, 15 mM NO3) was supplemented with 20 g/l sucrose and used as the EG basal medium. The sections after infection culturing were put on an EG basal agar medium (agar 8.5 g/l) supplemented with 500 mg/l ticarcillin and 1 μM or 10 μM of an auxin precursor analogue NAM, and the culturing was continued at 25° C. under light conditions of 30 to 40 μmol/m^2/s in light intensity while sub-culturing at an interval of 2 weeks using the same medium. Among these sections, the quicker ones redifferentiated adventitious buds after about 2 months of the Agrobacterium infection. Three months after the Agrobacterium infection, in order to examine expression of the GUS gene used as a model of the desired gene, the redifferentiated adventitious buds were subjected to a GUS staining test in accordance with the method of Jefferson et al. (Plant Mol. Biol. Rep., 5: 387-405 (1987)), and the degree of formation of desired gene-introduced adventitious buds was judged by examining the number of stained adventitious buds (the number of adventitious buds expressing the desired gene). An E. globulus gene introduction test was carried out in the same manner as in Example 1, except that the hypocotyl sections after the Agrobacterium infection were cultured using the EG basal agar medium (agar 8.5 g/l) supplemented with 500 mg/l ticarcillin and 0 μM, 1 μM or 10 μM NAA as auxin. An E. globulus gene introduction test was carried out in the same manner as in Example 1 or Comparative Example 1, except that a plasmid pIPT10 having only the ipt gene as the selectable marker gene was used as the vector. Also, the vector also has the GUS gene as a model of the desired gene. Structure of T-DNA region of the pIPT10 used in this case is shown in FIG. 2, and results of the gene introduction test are shown in Table 3.

[3] = NAA 1 μM in medium, 62 sections tested
[4] = NAA 10 μM in medium, 40 sections tested

Structure (SMILES): O=C(O)Cc1cccc2ccccc12 [NAA, naphthaleneacetic acid]
- B Adventitious bud differentiated (number of sections) [1, 3]: 9 number of sections
- C GUS + adventitious bud differentiated (number of sections) [1, 3]: 2 number of sections
- B/A Redifferentiation ratio ([1]; NAA 1 μM in medium): 14.5%
- C/A Gene introduction ratio ([1]; NAA 1 μM in medium): 3.2%
- C/B Selection efficiency ([1]; NAA 1 μM in medium): 22.2%
- B Adventitious bud differentiated (number of sections) [1, 4]: 13 number of sections
- C GUS + adventitious bud differentiated (number of sections) [1, 4]: 1 number of sections
- B/A Redifferentiation ratio ([1]; NAA 10 μM in medium): 32.5%
- C/A Gene introduction ratio ([1]; NAA 10 μM in medium): 2.5%
- C/B Selection efficiency ([1]; NAA 10 μM in medium): 7.7%
- B Adventitious bud differentiated (number of sections) ([2]; additive 1 μM in medium): 9 number of sections
- C GUS + adventitious bud differentiated (number of sections) ([2]; additive 1 μM in medium): 1 number of sections
- B/A Redifferentiation ratio ([2]; additive 1 μM in medium): 20.5%
- C/A Gene introduction ratio ([2]; additive 1 μM in medium): 2.3%
- C/B Selection efficiency ([2]; additive 1 μM in medium): 11.1%
- B Adventitious bud differentiated (number of sections) ([2]; additive 10 μM in medium): 7 number of sections
- C GUS + adventitious bud differentiated (number of sections) ([2]; additive 10 μM in medium): 0 number of sections
- B/A Redifferentiation ratio ([2]; additive 10 μM in medium): 15.9%
- C/A Gene introduction ratio ([2]; additive 10 μM in medium): 0.0%
- C/B Selection efficiency ([2]; additive 10 μM in medium): 0%
